Here are results for three compounds from patent US20050124497A1, “Delta1-pyrrolines and their use as pest control agents” (priority 2002, published 2005).

Holding throughout (assay type): in vivo
In assay [1] the test system is caterpillars of the armyworm (Spodoptera exigua). The experiment in a line: Spodoptera exigua test. The note with it: 100 ppm active compound, cabbage leaves dipped, kill after 7 d. How it is done:
(§1) To produce a suitable preparation of active compound, 1 part by weight of active compound is mixed with the stated amounts of solvent and emulsifier, and the concentrate is diluted with emulsifier-containing water to the desired concentration.
Cabbage leaves (Brassica oleracea) are treated by being dipped into the preparation of active compound of the desired concentration and are populated with caterpillars of the armyworm (Spodoptera exigua) while the leaves are still moist.
(§2) After the desired period of time, the kill in % is determined. 100% means that all caterpillars have been killed; 0% means that none of the caterpillars have been killed.

In assay [2] the test system is caterpillars of the diamondback moth (Plutella xylostella). Description: Plutella test. The conditions noted are these: 100 ppm active compound, cabbage leaves dipped, kill after 7 d. The method, then:
as §1
Cabbage leaves (Brassica oleracea) are treated by being dipped into the preparation of active compound of the desired concentration and are populated with caterpillars of the diamondback moth (Plutella xylostella) while the leaves are still moist.
as §2

Assay [3] concerns Meloidogyne incognita egg/larvae suspension. The experiment in a line: Meloidogyne test. The note with it: 20 ppm active compound, lettuce in sand, nematicidal action by gall formation. How it is done:
To produce a suitable preparation of active compound, 1 part by weight of active compound is mixed with the stated amounts of solvent and emulsifier, and the concentrate is diluted with water to the desired concentration.
Containers are filled with sand, solution of active compound, Meloidogyne incognita egg/larvae suspension and lettuce seeds. The lettuce seeds germinate and the plants develop. On the roots, galls are formed.
After the desired period of time, the nematicidal action is determined in % by gall formation. 100% means that no galls were found; 0% means that the number of galls on the treated plants corresponds to that of the untreated control.

Turning to `Fc1cc(-c2nc3cc(-c4ccccc4)ccc3o2)ccc1C1CCC(c2c(F)cccc2F)=N1` (stereo not drawn) [drawing 47], the “Efficacy in % after 7 d” value in assay [1] is on record as 100%.

As to `Fc1cc(-c2nc3cc(-c4ccccc4)ccc3o2)ccc1C1CCC(c2c(F)cccc2F)=N1` (stereo not drawn) [drawing 46], the “Efficacy in % after 7 d” value in assay [2] was determined as 100%.

Consider `Fc1cccc(F)c1C1=NC(c2ccc(-c3nc4cc(Br)ccc4o3)cc2)CC1` (stereo not drawn) [drawing 38], for which the “Efficacy in % after 7 d” value in assay [3] worked out at 80%.
